Results as given in US9469631B2 (Boehringer Ingelheim International GmbH, priority 2012, dated 2016).

Target: human GPR119 (Homo sapiens (Human), UniProt Q8TDV5)
Assay: AlphaScreen cAMP assay in MIN6 cells stably transfected with human GPR119
Assay type: cell-based
Conditions: Min-6/hGPR119 cells, 45 min incubation at room temperature
Procedure: The compounds of formula I according to the invention modulate the activity of the G-protein-coupled receptor GPR119. The effect of the compounds on the activation of GPR119 and on the stimulation of intracellular cAMP concentration is determined using the AlphaScreen cAMP Assay Kit (Cat. No. #6760625R) made by PerkinElmer.
MIN6 cells [Miyazaki J et al. Endocrinology. 1990 July; 127(1):126-32] are stably transfected with an expression vector for human GPR119 cDNA (Acc. No. NP_848566). Min-6/hGPR119 cells are cultured in DMEM, 10% FBS, 50 μM β-mercaptoethanol, 0.3 mg/mL Geniticin, 2 mM GlutaMAX at 37° C. 5% CO2. For the assay, the cells are seeded in Optiplates (white, 384-well, 160W-barcoded, TC, sterile with lid, Cat. No. #6007688 (Perkin Elmer); 10000 cells/well; 50 μl). The plates covered with lids are then incubated for 24 hours at 37° C./5% CO2. After the medium is aspirated from the wells completely, 10 μl of the test compound are added, the compounds are diluted using stimulating buffer (140 mM NaCl, 3.6 mM KCl, 0.5 mM NaH2PO4, 0.5 mM MgSO4, 1.5 mM CaCl2, 10 mM Hepes, 5 mM NaHCO3; pH 7.4. 0.5 mM IBMX and 0.1% BSA, the final DMSO concentration is 1%). After 45 minutes incubation at room temperature (approx. 20° C.), the cAMP concentrations are determined using the AlphaScreen cAMP Assay Kit (Cat. No. #6760625R from PerkinElmer).

human GPR119, sequence (Q8TDV5 whole entry): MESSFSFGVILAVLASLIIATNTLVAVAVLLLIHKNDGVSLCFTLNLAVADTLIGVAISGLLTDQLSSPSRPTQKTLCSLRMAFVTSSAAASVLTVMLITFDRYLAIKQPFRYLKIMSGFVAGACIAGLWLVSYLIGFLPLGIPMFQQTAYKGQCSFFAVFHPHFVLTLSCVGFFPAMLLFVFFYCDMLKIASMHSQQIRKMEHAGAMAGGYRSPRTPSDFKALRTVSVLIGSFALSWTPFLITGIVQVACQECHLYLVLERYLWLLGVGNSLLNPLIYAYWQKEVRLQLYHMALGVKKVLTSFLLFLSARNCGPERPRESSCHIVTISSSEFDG

Q: Which EC50 does the source give for O=C(OC1CCCC1)N1CCC(N(C(=O)c2ccc(-c3cnco3)cc2)C2CC2)CC1 [Example 128, 4-[Cyclopropyl-(4-oxazol-5-yl-benzoyl)-amino]-piperidine-1-carboxylic acid cyclopentyl ester] here?
A: Its EC50 is 34 nM.

Q: How did the EC50 turn out when Cc1nc(-c2ccc(C(=O)N(C3CC3)C3CCN(C(=O)OC(C)(C)C)CC3)cc2)co1 [Example 5, 4-{Cyclopropyl-[4-(2-methyl-oxazol-4-yl)-benzoyl]-amino}-piperidine-1-carboxylic acid tert-butyl ester] was run?
A: The EC50 was 884 nM.

Q: CC(C)(C)OC(=O)N1CCC(N(C(=O)c2ccc(-c3ccc(CC#N)cc3)cc2)C2CC2)CC1 [Example 91, 4-[(4′-Cyanomethyl-biphenyl-4-carbonyl)-cyclopropyl-amino]-piperidine-1-carboxylic acid tert-butyl ester] was tested. Which EC50 did it give?
A: Its EC50 is 86 nM.

Q: For CC(C)(C)OC(=O)N1CCC(N(C(=O)c2ccc(-c3ccc(CO)cc3)cc2)C2CC2)CC1 [Example 98, 4-[Cyclopropyl-(4′-hydroxymethyl-biphenyl-4-carbonyl)-amino]-piperidine-1-carboxylic acid tert-butyl ester], which EC50 is on record?
A: The EC50 was 68 nM.

Q: For CC(C)(C)OC(=O)N1CCC(N(C(=O)c2ccc(-c3ccncc3C#N)c(F)c2)C2CC2)CC1 [Example 34, 4-{[4-(3-Cyano-pyridin-4-yl)-3-fluoro-benzoyl]-cyclopropyl-amino}-piperidine-1-carboxylic acid tert-butyl ester], which EC50 is on record?
A: The EC50 was 21 nM.

Q: Which EC50 does the source give for CC(C)COC(=O)N1CCC(N(C(=O)c2ccc(-c3cnco3)cc2)C2CC2)CC1 [Example 125, 4-[Cyclopropyl-(4-oxazol-5-yl-benzoyl)-amino]-piperidine-1-carboxylic acid isobutyl ester] here?
A: The EC50 was 45 nM.

Q: For CC1CC(N(C(=O)c2ccc(-c3cnco3)cc2)C2CC2)CCN1C(=O)OC(C)(C)C (centres unmarked) [Example 1, 4-[Cyclopropyl-(4-oxazol-5-yl-benzoyl)-amino]-2-methyl-piperidine-1-carboxylic acid tert-butyl ester], which EC50 is on record?
A: The EC50 was 157 nM.

Q: How did the EC50 turn out when CC(C)OC(=O)N1CCC(N(C(=O)c2ccc(-c3ccc(C(N)=O)cc3)cc2)C2CC2)CC1 [Example 129, 4-[(4′-Carbamoyl-biphenyl-4-carbonyl)-cyclopropyl-amino]-piperidine-1-carboxylic acid isopropyl ester] was run?
A: The EC50 was 113 nM.

Q: With CC(C)(C)OC(=O)N1CCC(N(C(=O)c2ccc(-c3ccc(S(C)(=O)=O)cn3)cc2)C2CC2)CC1 [Example 21, 4-{Cyclopropyl-[4-(5-methanesulfonyl-pyridin-2-yl)-benzoyl]-amino}-piperidine-1-carboxylic acid tert-butyl ester] as the compound, how does the EC50 read?
A: The EC50 was 74 nM.

Q: With CC(C)(C)OC(=O)N1CCC(N(C(=O)c2ccc(-c3cncnc3)cc2)C2CC2)CC1 [Example 69, 4-[Cyclopropyl-(4-pyrimidin-5-yl-benzoyl)-amino]-piperidine-1-carboxylic acid tert-butyl ester] as the compound, how does the EC50 read?
A: Its EC50 is 158 nM.

Q: For CC(C)(C)OC(=O)N1CC[C@H](N(C(=O)c2ccc(-c3cnco3)cc2)C2CC2)[C@H](F)C1 (single isomer, unassigned) [Example 40], which EC50 is on record?
A: The EC50 was 2 nM.

Q: Which EC50 does the source give for CC(C)(C)OC(=O)N1CCC(N(C(=O)c2ccc(-c3cncc(C#N)c3)cc2)C2CC2)CC1 [Example 113, 4-{[4-(5-Cyano-pyridin-3-yl)-benzoyl]-cyclopropyl-amino}-piperidine-1-carboxylic acid tert-butyl ester] here?
A: The EC50 was 48 nM.

Q: With CC(C)(C)OC(=O)N1CCC(N(C(=O)c2ccc(-n3cncn3)cc2)C2CC2)CC1 [Example 63, 4-[Cyclopropyl-(4-[1,2,4]triazol-1-yl-benzoyl)-amino]-piperidine-1-carboxylic acid tert-butyl ester] as the compound, how does the EC50 read?
A: Its EC50 is 127 nM.

Q: How did the EC50 turn out when CC1(OC(=O)N2CCC(N(C(=O)c3ccc(-c4ccc(S(C)(=O)=O)cn4)cc3)C3CC3)CC2)CC1 [Example 19, 4-{Cyclopropyl-[4-(5-methanesulfonyl-pyridin-2-yl)-benzoyl]-amino}-piperidine-1-carboxylic acid 1-methyl-cyclopropyl ester] was run?
A: Its EC50 is 1770 nM.

Q: For COc1ccc(-c2ccc(C(=O)N(C3CC3)C3CCN(C(=O)OC(C)(C)C)CC3)cc2)cc1 [Example 86, 4-[Cyclopropyl-(4′-methoxy-biphenyl-4-carbonyl)-amino]-piperidine-1-carboxylic acid tert-butyl ester], which EC50 is on record?
A: The EC50 was 401 nM.

Q: For CC(C)(C)OC(=O)N1CCC(N(C(=O)c2ccc(-c3nccs3)cc2)C2CC2)CC1 [Example 59, 4-[Cyclopropyl-(4-thiazol-2-yl-benzoyl)-amino]-piperidine-1-carboxylic acid tert-butyl ester], which EC50 is on record?
A: Its EC50 is 332 nM.

Q: Which EC50 does the source give for CC(C)(C)OC(=O)N1CCC(N(C(=O)c2ccc(-n3ccnc3)cc2)C2CC2)CC1 [Example 52, 4-[Cyclopropyl-(4-imidazol-1-yl-benzoyl)-amino]-piperidine-1-carboxylic acid tert-butyl ester] here?
A: Its EC50 is 832 nM.

Q: For CC(C)(C)OC(=O)N1CCC(N(C(=O)c2ccc(-c3noc(Cc4ccccc4)n3)cc2)C2CC2)CC1 [Example 68, 4-{[4-(5-Benzyl-[1,2,4]oxadiazol-3-yl)-benzoyl]-cyclopropyl-amino}-piperidine-1-carboxylic acid tert-butyl ester], which EC50 is on record?
A: The EC50 was 192 nM.

Q: For CC(C)(C)OC(=O)N1CCC(N(C(=O)c2ccc(-c3cnco3)c([N+](=O)[O-])c2)C2CC2)CC1 [Example 7, 4-[Cyclopropyl-(3-nitro-4-oxazol-5-yl-benzoyl)-amino]-piperidine-1-carboxylic acid tert-butyl ester], which EC50 is on record?
A: The EC50 was 78 nM.

Q: With CC(C)(C)OC(=O)N1CCC(N(C(=O)c2ccc(-c3cncs3)cc2)C2CC2)CC1 [Example 6, 4-[Cyclopropyl-(4-thiazol-5-yl-benzoyl)-amino]-piperidine-1-carboxylic acid tert-butyl ester] as the compound, how does the EC50 read?
A: Its EC50 is 32 nM.

Q: For CN(C)C(=O)Nc1nnc(-c2ccc(C(=O)N(C3CC3)C3CCN(C(=O)OC(C)(C)C)CC3)cc2)s1 [Example 76, 4-(Cyclopropyl-{4-[5-(3,3-dimethyl-ureido)-[1,3,4]thiadiazol-2-yl]-benzoyl}-amino)-piperidine-1-carboxylic acid tert-butyl ester], which EC50 is on record?
A: The EC50 was 233 nM.

Q: How did the EC50 turn out when CC(C)(C)OC(=O)N1CCC(N(C(=O)c2ccc(-c3ccc(C(N)=O)cc3)cc2)C2CC2)CC1 [Example 102, 4-[(4′-Carbamoyl-biphenyl-4-carbonyl)-cyclopropyl-amino]-piperidine-1-carboxylic acid tert-butyl ester] was run?
A: Its EC50 is 39 nM.

Q: With CC(C)(C)OC(=O)N1CCC(N(C(=O)c2ccc(-c3cnco3)cc2)C2CC2)CC1 [Example 53, 4-[Cyclopropyl-(4-oxazol-5-yl-benzoyl)-amino]-piperidine-1-carboxylic acid tert-butyl ester] as the compound, how does the EC50 read?
A: The EC50 was 33 nM.

Q: CNS(=O)(=O)c1ccc(-c2ccc(C(=O)N(C3CC3)C3CCN(C(=O)OC(C)(C)C)CC3)cc2)cc1 [Example 111, 4-[Cyclopropyl-(4′-methylsulfamoyl-biphenyl-4-carbonyl)-amino]-piperidine-1-carboxylic acid tert-butyl ester] was tested. Which EC50 did it give?
A: The EC50 was 111 nM.

Q: With CCCOC(=O)N1CCC(N(C(=O)c2ccc(-c3cnco3)cc2)C2CC2)CC1 [Example 123, 4-[Cyclopropyl-(4-oxazol-5-yl-benzoyl)-amino]-piperidine-1-carboxylic acid propyl ester] as the compound, how does the EC50 read?
A: Its EC50 is 80 nM.

Q: How did the EC50 turn out when Cc1ncoc1-c1ccc(C(=O)N(C2CC2)C2CCN(C(=O)OC(C)(C)C)CC2)cc1 [Example 10, 4-{Cyclopropyl-[4-(4-methyl-oxazol-5-yl)-benzoyl]-amino}-piperidine-1-carboxylic acid tert-butyl ester] was run?
A: The EC50 was 75 nM.
